# Molecular target: T1, 3',5'-cyclic-AMP phosphodiesterase 4B (Homo sapiens, UniProt Q07343)
# T1 construct: gene PDE4B
# Assay: In Vitro Detection of the Inhibitory Activity of Compounds Against PDE 4B Enzyme
# Method: The recombinant human PDE4B enzyme and enzyme substrate (1 μM cAMP) were each dissolved in newly prepared experimental buffer solution;2. The PDE4B enzyme buffer solution was transferred into reaction wells;3. The compound which was dissolved in 100% DMSO was added to the reaction wells containing PDE4B enzyme buffer solution by acoustic technique (echo 550; […]) and the mixture was incubated for 10 minutes at room temperature;4. The enzyme substrate buffer solution was added to the above reaction wells to initiate reaction;5. The resulting mixture was incubated at room temperature for 1 hour;6. The detection mixture (Transcreener AMP2/GMP2 antibody and AMP2/GMP2 AlexaFluor633 tracer) was added to stop the reaction, and the resulting mixture was incubated for 90 minutes while slowly mixing.
# T1 sequence (Q07343 whole entry, looked up): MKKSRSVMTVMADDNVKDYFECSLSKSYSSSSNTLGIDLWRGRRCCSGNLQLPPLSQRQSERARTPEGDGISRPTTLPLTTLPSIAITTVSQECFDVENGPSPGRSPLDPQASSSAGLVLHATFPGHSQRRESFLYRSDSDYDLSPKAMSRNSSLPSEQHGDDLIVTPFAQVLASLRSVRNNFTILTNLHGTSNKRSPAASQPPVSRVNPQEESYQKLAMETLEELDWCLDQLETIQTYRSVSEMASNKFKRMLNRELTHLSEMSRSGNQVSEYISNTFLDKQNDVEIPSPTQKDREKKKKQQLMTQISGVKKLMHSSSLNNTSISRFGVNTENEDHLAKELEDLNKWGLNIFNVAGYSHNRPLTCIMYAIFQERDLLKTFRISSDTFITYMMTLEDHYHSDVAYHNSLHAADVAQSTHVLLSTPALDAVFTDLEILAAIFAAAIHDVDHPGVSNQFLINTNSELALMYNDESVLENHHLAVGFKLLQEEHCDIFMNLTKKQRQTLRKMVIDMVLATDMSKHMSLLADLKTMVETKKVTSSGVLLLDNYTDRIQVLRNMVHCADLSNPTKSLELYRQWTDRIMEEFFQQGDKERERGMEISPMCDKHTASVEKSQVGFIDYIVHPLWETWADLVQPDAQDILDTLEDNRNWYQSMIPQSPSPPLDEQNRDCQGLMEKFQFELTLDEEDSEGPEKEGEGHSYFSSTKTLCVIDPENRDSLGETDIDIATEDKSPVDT
row,SMILES,IC50 [nM]
1,"CCOc1cc2c(cc1OC)-c1c/c(=N\c3c(C)cc(C)cc3C)n(CCC(=O)Nc3nnc[nH]3)c(=O)n1CC2 [US11993596, Compound WX054]",2.7
2,"CCOc1cc2c(cc1OC)-c1c/c(=N\c3c(C)cc(C)cc3C)n(CCNc3nc[nH]n3)c(=O)n1CC2 [US11993596, Compound WX003]",2.2
3,"CCOc1cc2c(cc1OC)-c1c/c(=N\c3c(C)cc(C)cc3C)n(CCN(O)C(=O)c3cnn[nH]3)c(=O)n1CC2 [US11993596, Compound WX064]",1.4
4,"CCOc1cc2c(cc1OC)-c1c/c(=N\c3c(C)cc(C)cc3C)n(CCNC(=O)c3nnc[nH]3)c(=O)n1CC2 [US11993596, Compound WX015]",0.56
5,"CCOc1cc2c(cc1OC)-c1c/c(=N\c3c(C)cc(C)cc3C)n(CCN3CCOC3=O)c(=O)n1CC2 [US11993596, Compound WX001]",6.5
6,"CCOc1cc2c(cc1OC)-c1c/c(=N\c3c(C)cc(C)cc3C)n(CCNc3nncs3)c(=O)n1CC2 [US11993596, Compound WX005]",5.7
